Experimental data: patent publication US8519149B2, “Tricyclic compounds as mPGES-1 inhibitors” (Glenmark Pharmaceuticals S.A., priority 2010, dated 2013)

Biological target: T1, Recombinant human mPGES-1 (Homo sapiens, UniProt O14684)
T1 sequence (O14684 1-152): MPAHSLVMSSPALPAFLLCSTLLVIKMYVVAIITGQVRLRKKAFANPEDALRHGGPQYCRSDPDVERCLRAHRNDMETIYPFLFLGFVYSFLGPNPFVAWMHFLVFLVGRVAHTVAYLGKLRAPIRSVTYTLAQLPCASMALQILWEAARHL
Assay: In-vitro mPGES-1 enzyme inhibition assay (PGE2 formation from PGH2, HTRF detection)
Assay type: biochemical
Conditions: for inhibition at 1 µM: 1 μM test compound, read-out: Percentage inhibition at 1 μM; for inhibition at 1 µM / inhibition at 10 µM: recombinant human mPGES-1 microsomal fraction; for inhibition at 10 µM: 10 μM test compound, read-out: Percentage inhibition at 10 μM; for IC50: class symbols, selected examples
Method in brief: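 IC50 values were derived by nonlinear regression of percent inhibition relative to enzyme reactions run without inhibitor. PGE2 formed from PGH2 with GSH was quantified by antibody-based HTRF after stannous chloride quench. Enzyme source was human mPGES-1 microsomes at 40-60 μg/mL protein; DMSO 0.5% (v/v).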

Structure (SMILES) | inhibition at 1 µM | inhibition at 10 µM | IC50
Cc1cccc(Cl)c1Nc1nc2cc(C(=O)Nc3cccc(C(F)(F)F)c3F)c3c(c2[nH]1)CC(C)(C)O3 [Example-164, 2-((2-Chloro-6-methylphenyl)amino)-N-(2-fluoro-3-(trifluoromethyl)phenyl)-7,7-dimethyl-7,8-dihydro-1H-benzofuro[4,5-d]imidazole-5-carboxamide] | 93.5% | 94.5% | < 50 nM
Cc1cc2c(o1)c(C(=O)Nc1ccccc1F)cc1nc(Nc3c(Cl)cccc3Cl)[nH]c12 [Example-67, 2-[(2,6-Dichlorophenyl)amino]-N-(2-fluorophenyl)-7-methyl-1H-furo[3,2-e]benzimidazole-5-carboxamide] | 92.8% | 96.2% | –
Cc1cc2c(o1)c(C(=O)Nc1ccc(F)cc1)cc1nc(Nc3c(Cl)cncc3Cl)[nH]c12 [Example-36, 2-[(3,5-Dichloropyridin-4-yl)amino]-N-(4-fluorophenyl)-7-methyl-1H-furo[3,2-e]benzimidazole-5-carboxamide] | 92.4% | 99.3% | > 100 nM
CC1(C)Cc2c(c(C(=O)Nc3c(F)cccc3F)cc3nc(Nc4c(Cl)cccc4Cl)[nH]c23)O1 [Example-76, 2-[(2,6-Dichlorophenyl)amino]-N-(2,6-difluorophenyl)-7,7-dimethyl-7,8-dihydro-1H-furo[3,2-e]benzimidazole-5-carboxamide] | 95.8% | 99.6% | < 50 nM
Cc1nc2c(o1)c(C(=O)Nc1ccc(F)c(C(F)(F)F)c1)cc1nc(Nc3c(F)cccc3Cl)[nH]c12 [Example-187, 7-((2-Chloro-6-fluorophenyl)amino)-N-(4-fluoro-3-(trifluoromethyl)phenyl)-2-methyl-8H-imidazo[4′,5′:5,6]benzo[1,2-d]oxazole-4-carboxamide] | 95.8% | 83% | < 50 nM
CC1(C)Cc2c(c(C(=O)Nc3ccc(C(F)(F)F)cc3)cc3nc(Nc4ccccc4C(C)(C)C)[nH]c23)O1 [Example-102, 2-[(2-tert-Butylphenyl)amino]-7,7-dimethyl-N-[4-(trifluoromethyl)phenyl]-7,8-dihydro-1H-furo[3,2-e]benzimidazole-5-carboxamide] | 19.3% | 22.8% | –
CC1(C)Cc2c(c(C(=O)NCCc3ccc(Cl)cc3)cc3nc(Nc4c(Cl)cccc4Cl)[nH]c23)O1 [Example-83, N-[2-(4-Chlorophenyl)ethyl]-2-[(2,6-dichlorophenyl)amino]-7,7-dimethyl-7,8-dihydro-1H-furo[3,2-e]benzimidazole-5-carboxamide] | 87.7% | 89.3% | < 50 nM
Cc1ccc(Cl)c(Nc2nc3cc(C(=O)Nc4cccc(C(F)(F)F)c4)c4c(c3[nH]2)CC(C)(C)O4)c1 [Example-123, 2-[(2-Chloro-5-methylphenyl)amino]-7,7-dimethyl-N-[3-(trifluoromethyl)phenyl]-7,8-dihydro-1H-furo[3,2-e]benzimidazole-5-carboxamide] | 91.1% | 98.9% | < 50 nM
CC1(C)Cc2c(c(C(=O)Nc3ccc(Cl)cn3)cc3nc(Nc4c(F)cccc4Cl)[nH]c23)O1 [Example-121, 2-[(2-Chloro-6-fluorophenyl)amino]-N-(5-chloropyridin-2-yl)-7,7-dimethyl-7,8-dihydro-1H-furo[3,2-e]benzimidazole-5-carboxamide] | 100% | 100% | –
Cc1cnc(NC(=O)c2cc3nc(Nc4c(Cl)cccc4Cl)[nH]c3c3c2OC(C)(C)C3)s1 [Example-40, 2-[(2,6-Dichlorophenyl)amino]-7,7-dimethyl-N-(5-methyl-1,3-thiazol-2-yl)-7,8-dihydro-1H-furo[3,2-e]benzimidazole-5-carboxamide] | 88.7% | 94.6% | < 50 nM

Next, values leading:

inhibition at 1 µM | inhibition at 10 µM | IC50 | Structure (SMILES)
99.1% | 99.5% | < 50 nM | CCCCCCNC(=O)c1cc2nc(Nc3c(Cl)cncc3Cl)[nH]c2c2c1OC(C)(C)C2 [Example-3, 2-[(3,5-Dichloropyridin-4-yl)amino]-N-hexyl-7,7-dimethyl-7,8-dihydro-1H-furo[3,2-e]benzimidazole-5-carboxamide]
74.6% | 96.8% | – | Cc1cccc(Cl)c1Nc1nc2cc(C(=O)NCc3ccc(F)cc3C(F)(F)F)c3c(c2[nH]1)CC(C)(C)O3 [Example-130, 2-((2-Chloro-6-methylphenyl)amino)-N-(4-fluoro-2-(trifluoromethyl)benzyl)-7,7-dimethyl-7,8-dihydro-1H-benzofuro[4,5-d]imidazole-5-carboxamide]
85.5% | 99.4% | > 100 nM | CC1(C)Cc2c(c(C(=O)NCc3ccccc3C(F)(F)F)cc3nc(Nc4ccccc4Cl)[nH]c23)O1 [Example-88, 2-[(2-Chlorophenyl)amino]-7,7-dimethyl-N-[2-(trifluoromethyl)benzyl]-7,8-dihydro-1H-furo[3,2-e]benzimidazole-5-carboxamide]
86.2% | 98% | < 50 nM | COCCCNC(=O)c1cc2nc(Nc3c(Cl)cccc3Cl)[nH]c2c2c1OC(C)(C)C2 [Example-69, 2-[(2,6-Dichlorophenyl)amino]-N-(3-methoxypropyl)-7,7-dimethyl-7,8-dihydro-1H-furo[3,2-e]benzimidazole-5-carboxamide]
93.7% | 97.4% | < 50 nM | Cc1nc2c(o1)c(C(=O)Nc1ccc(Br)cc1)cc1nc(Nc3c(Cl)cccc3Cl)[nH]c12 [Example-179, N-(4-Bromophenyl)-7-[(2,6-dichlorophenyl)amino]-2-methyl-8H-imidazo[4,5-e][1,3]benzoxazole-4-carboxamide]
97.1% | 98.9% | < 50 nM | CC1(C)Cc2c(c(C(=O)Nc3ccc(C4CC4)cc3)cc3nc(Nc4c(F)cccc4Cl)[nH]c23)O1 [Example-140, 2-((2-Chloro-6-fluorophenyl)amino)-N-(4-cyclopropylphenyl)-7,7-dimethyl-7,8-dihydro-1H-benzofuro[4,5-d]imidazole-5-carboxamide]
95% | 98.7% | < 50 nM | CC1(C)Cc2c(c(C(=O)Nc3ccc(C(F)(F)F)cc3)cc3nc(Nc4ccc(F)cc4Cl)[nH]c23)O1 [Example-86, 2-[(2-Chloro-4-fluorophenyl)amino]-7,7-dimethyl-N-[4-(trifluoromethyl)phenyl]-7,8-dihydro-1H-furo[3,2-e]benzimidazole-5-carboxamide]
96.5% | 96.4% | – | Cn1c(Nc2c(Cl)cncc2Cl)nc2cc(C(=O)Nc3ccc(C4CC4)cc3)c3c(c21)CC(C)(C)O3 [Example-216, N-(4-Cyclopropylphenyl)-2-((3,5-dichloropyridin-4-yl)amino)-1,7,7-trimethyl-7,8-dihydro-1H-benzofuro[4,5-d]imidazole-5-carboxamide]
62.8% | 96.9% | – | Cc1cccc(Cl)c1Nc1nc2cc(C(=O)Nc3ccc(C(F)(F)F)c[n+]3[O-])c3c(c2[nH]1)CC(C)(C)O3 [Example-163, 2-(2-((2-Chloro-6-methylphenyl)amino)-7,7-dimethyl-7,8-dihydro-1H-benzofuro[4,5-d]imidazole-5-carboxamido)-5-(trifluoromethyl)pyridine 1-oxide]
93.8% | 92.5% | < 50 nM | CC1(C)Cc2c(c(C(=O)Nc3ccccc3F)cc3nc(Nc4c(Cl)cccc4Cl)[nH]c23)O1 [Example-30, 2-[(2,6-Dichlorophenyl)amino]-N-(2-fluorophenyl)-7,7-dimethyl-7,8-dihydro-1H-furo[3,2-e]benzimidazole-5-carboxamide]
10.6% | 76.7% | – | CC1(C)Cc2c(c(C(=O)Nc3ccc(OCC4CC4)nc3)cc3nc(Nc4c(F)cccc4Cl)[nH]c23)O1 [Example-125, 2-[(2-Chloro-6-fluorophenyl)amino]-N-[6-(cyclopropylmethoxy)pyridin-3-yl]-7,7-dimethyl-7,8-dihydro-1H-furo[3,2-e]benzimidazole-5-carboxamide]
94.1% | 97.6% | < 50 nM | CC1(C)Cc2c(c(C(=O)NCc3ccccc3C(F)(F)F)cc3nc(Nc4c(Cl)cccc4Cl)[nH]c23)O1 [Example-82, 2-[(2,6-Dichlorophenyl)amino]-7,7-dimethyl-N-[2-(trifluoromethyl)benzyl]-7,8-dihydro-1H-furo[3,2-e]benzimidazole-5-carboxamide]
94.4% | 98.5% | < 50 nM | O=C(Nc1cc(C(F)(F)F)ccc1F)c1cc2nc(Nc3c(F)cccc3Cl)[nH]c2c2nc(C3CC3)oc12 [Example-185, 7-((2-Chloro-6-fluorophenyl)amino)-2-cyclopropyl-N-(2-fluoro-5-(trifluoromethyl)phenyl)-8H-imidazo[4′,5′:5,6]benzo[1,2-d]oxazole-4-carboxamide]
97.6% | 98% | < 50 nM | CC1(C)Cc2c(c(C(=O)Nc3ccc(C(F)(F)F)cn3)cc3nc(Nc4c(Cl)cccc4Cl)[nH]c23)O1 [Example-101, 2-[(2,6-Dichlorophenyl)amino]-7,7-dimethyl-N-[5-(trifluoromethyl)pyridin-2-yl]-7,8-dihydro-1H-furo[3,2-e]benzimidazole-5-carboxamide]
